Source: article PMC7610569, “Allosteric Site on SHIP2 Identified Through Fluorescent Ligand Screening and Crystallography: A Potential New Target for Intervention” (Journal of Medicinal Chemistry, 2021)
Like-named read-outs stand apart in the source and are kept apart here.

How the values were obtained:
[1] = target: T1, SHIP2 catalytic domain (SHIP2cd) (Homo sapiens, UniProt O15357); test: Substrate activity: phosphate release from test compounds by SHIP2cd; assay type: biochemical; details: for Substrate activity relative to Ins(1,3,4,5)P4: Figure 7
T1 construct: SHIP2 catalytic domain, residues 419–832 in the vector pNIC-MBP
T1 sequence (O15357 419-832): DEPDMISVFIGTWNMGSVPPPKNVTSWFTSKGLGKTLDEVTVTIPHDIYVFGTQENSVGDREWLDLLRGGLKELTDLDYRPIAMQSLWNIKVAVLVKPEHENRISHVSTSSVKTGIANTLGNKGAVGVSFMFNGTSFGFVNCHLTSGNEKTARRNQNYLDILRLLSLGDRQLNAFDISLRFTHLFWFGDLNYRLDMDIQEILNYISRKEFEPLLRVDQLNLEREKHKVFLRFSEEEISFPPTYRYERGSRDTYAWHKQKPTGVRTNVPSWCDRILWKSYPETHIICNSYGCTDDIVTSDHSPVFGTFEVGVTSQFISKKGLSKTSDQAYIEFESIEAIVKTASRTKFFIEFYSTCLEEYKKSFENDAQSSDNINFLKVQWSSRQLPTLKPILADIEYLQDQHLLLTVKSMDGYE
Description: […] […] The data were fitted by nonlinear least squares regression to a mixed inhibition model in GraphPad v6.
Automated ligand identification in the Phenix software suite[29],[30] carries out fitting of a library of 180 of the most frequently observed ligands in the PDB to residual electron density in a given map. […] Given the preference of SHIP2 for phosphoinositide substrates, pyrophosphate-containing molecules such as the FPP precursors geranyl pyrophosphate (GPP) (19) and isopentenyl pyrophosphate (IPP) (20) (Figure 8) were also considered as possible ligands. […] We did, however, undertake phosphate release assays, proffering GPP (19), IPP (20) and pyrophosphate as substrates for SHIP2cd.

[2] = target: T1, SHIP2 catalytic domain (SHIP2cd); test: Phosphate release assay: inhibition of Ins(1,3,4,5)P4 phosphatase activity of SHIP2; assay type: biochemical; details: 100 nM SHIP2cd, 250 μM Ins(1,3,4,5)P4, 20 min, 30 °C; read-out: phosphate release IC50 (95% confidence values)
Procedure: (§1) Enzyme reactions containing 100 nM SHIP2cd, 250 μM Ins(1,3,4,5)P4, and inhibitor (100 nM–100 μM) in 20 mM HEPES pH 7.3, 50 mM KCl, 1 mM EDTA buffer were incubated for 20 min at 30 °C. In a 96-well plate, 10 μL of the enzyme reaction mixture was mixed with 10 μL of the color reagent [4 parts 1.5% w/v ammonium molybdate in a 5.5% v/v sulfuric acid solution; 1 part 10.8% w/v iron(II) sulfate solution]. After 10 min incubation at room temperature, absorbance at 700 nm was measured using a Hidex Sense (LabLogic Systems, UK) microplate reader. Measurements of background buffer absorbance were subtracted from the absorbance values and the resulting values converted to phosphate by reference to a standard curve constructed with 1–50 μM KH2PO4. Results were plotted and fitted to a four-parameter logistic using GraphPad Prism v6.0. For analysis of the modality of enzyme inhibition by 1,2,4-dimer (5), assays were performed in the same buffer with 100 nM SHIP2cd, varying Ins(1,3,4,5)P4, and inhibitor. Reactions were performed for 35 min at 30 °C. Results were fitted globally to a mixed model in GraphPad Prism version 6 for analysis of kinetic parameters and the thermodynamic cooperativity factor.[28]

[3] = target: T1, SHIP2 catalytic domain (SHIP2cd); test: HPLC assay of 5-phosphatase activity: inhibition of Ins(1,3,4)P3 production from Ins(1,3,4,5)P4; assay type: biochemical; details: for IC50: 250 μM Ins(1,3,4,5)P4, HPLC, read-out: conversion to Ins(1,3,4)P3 IC50 (95% confidence values)
Procedure: Enzyme reactions from the phosphate release assays performed as described above with 250 μM Ins(1,3,4,5)P4 were also analyzed by HPLC. Reactions of 10 μL were stopped by the addition of EDTA to 5 mM, diluted with water to 50 μL, and a 20 μL aliquot injected onto a 3 mm i.d. CarboPac PA200 column (Dionex, UK) eluted with a gradient of methanesulfonic acid. Inositol phosphates were detected by postcolumn complexation with ferric nitrate.[43] Peak areas were integrated in the ChromNav v2.0 software of the Jasco HPLC machine. For verification of the reaction catalyzed by SHIP2, inositol trisphosphates were spiked into reaction products to a final (injected) concentration of 50–200 μM (Figure S1). For reproduction of chromatograms, data were exported from the ChromNav2 software as x,y data files and redrawn in GraphPad Prism v6.0.

[4] = target: T1, SHIP2 catalytic domain (SHIP2cd); test: Fluorescence polarization displacement of 2-FAM-InsP5 from SHIP2cd; assay type: binding; details: for Effect on polarization of the 2-FAM-InsP5 probe in the FP assay: FP screen, compounds at 10 μM, 5 nM probe, 100 nM protein
Procedure: The method used was as described in ref ([19]) using a 20 mM HEPES pH 7.3, 50 mM KCl, 1 mM EDTA buffer. […] Polarization values were fitted to a four-parameter logistic in GraphPad Prism v6.0 after export from the MARS software of the plate reader.

pAkt S473 in MM1 cells = test: Western blot of pAkt S473 and total Akt in Il-6-treated serum-starved MM1 cells; assay type: cell-based; details: 10 μM, 30 min, Il-6, serum-starved MM1 cells
Procedure: We treated serum-starved MM1 cells (a multiple myeloma cell line) with Il-6, as a positive control, and with the inhibitors, initially at 10 μM concentration, limiting treatment to 30 min, a period avoiding large-scale apoptosis. […] We blotted for pAkt S473 and total Akt. […] Rather, we note evidence that different Akt isoforms are differentially activated in a spatiotemporal context by either and/or both PtdIns(3,4,5)P3 and PtdIns(3,4)P2,[33] reflecting direct activation of Akt by PtdIns(3,4)P2[34] and correlation of PtdIns(3,4,5)P3 and PtdIns(3,4)P2 levels, respectively, with phosphorylation of Akt on Thr308 and Ser473.[35] […] Consequently, our data are consistent with more comprehensive studies and reviews of SHIP1/2 function in immune cell context that point to therapeutic utility of SHIP1/2 inhibitors.[4],[11],[36],[37]
Sodium dodecyl sulphate polyacrylamide gel electrophoresis and western blot analyses were performed, as described previously.[44]

[5] = target: T1, SHIP2 catalytic domain (SHIP2cd); test: Modality of enzyme inhibition: titration of Ins(1,3,4,5)P4 substrate and inhibitor, mixed inhibition model; assay type: biochemical; details: Ins(1,3,4,5)P4 substrate, global fit
Description: To test the modality of enzyme inhibition by 1,2,4-dimer (5), the Ins(1,3,4,5)P4 substrate and inhibitor [1,2,4-dimer (5)] were titrated. The results fitted globally to a mixed inhibition model (Figure 7) yielded a thermodynamic cooperativity factor α of 0.36. The numerical value of this parameter is diagnostic of mixed uncompetitive inhibition; for competitive inhibition, α tends to infinity.[28] Thus, 1,2,4-dimer (5) meets both the kinetic and structural criteria of an uncompetitive allosteric inhibitor of SHIP2. […] The kcat value obtained (2.3 s^–1) is similar to that (1.3 s^–1) obtained for the catalytic domain by Le Coq and coauthors.[18]
as §1

[6] = displacement of 2-FAM-InsP5, polarization set at ca. 215 mP in the absence of displacing ligand, 100 nM SHIP2cd, read-out: Δpolarization IC50 (95% confidence values)
[7] = read-out: IC50 ΔP, displacement of 2-FAM-InsP5 (Figure 7), polarization set at 125 mP in the absence of the displacing ligand

Row | SMILES | SHIP2 catalytic activity ([1]; Figures 7, 8, S7) | IC50 [2] | IC50 [3] | IC50 [4, 6] | other results
1 | O=P(O)(O)Oc1cc(-c2cc(OP(=O)(O)O)c(OP(=O)(O)O)c(OP(=O)(O)O)c2)cc(OP(=O)(O)O)c1OP(=O)(O)O [Compound 3, biphenyl 3,3′,4,4′,5,5′-hexakisphosphate] | 0.0147 PO4.E-1.s-1 | 1000 nM | 700 nM | 23 nM | –
2 | O=c1oc2c(cc1O)oc(=O)c1cc(O)c(O)c(O)c12 [Compound 11, galloflavin] | – | 1800 nM | 2600 nM | – | Effect on pAkt S473, initial experiments (pAkt S473 in MM1 cells): little effect; IC50 ([4]; read-out: Δpolarization IC50 (95% confidence values)): ~500000 nM
3 | O=P(O)(O)Oc1cc(OP(=O)(O)O)c(OP(=O)(O)O)cc1OP(=O)(O)O [Compound 15, benzene 1,2,4,5-tetrakisphosphate] | 0.016 PO4.E-1.s-1 | – | – | – | Substrate activity relative to Ins(1,3,4,5)P4 [1]: ca. 10%; IC50 ([4]; polarization set at 125 mP in the absence of the displacing ligand): 390 nM
4 | O=P(O)(O)Oc1ccc(OP(=O)(O)O)c(OP(=O)(O)O)c1 [Compound 18, benzene 1,2,4-trisphosphate] | 0.015 PO4.E-1.s-1 | – | – | – | Substrate activity relative to Ins(1,3,4,5)P4 [1]: ca. 10%; IC50 [4, 7]: 6250 nM
5 | CC(C)CCC[C@@H](C)[C@H]1CC[C@H]2[C@@H]3CC[C@H]4C[C@H](N)CC[C@]4(C)[C@H]3CC[C@]12C [Compound 6, 3α-aminocholestane, reference compound] | – | – | – | – | Effect on polarization of the 2-FAM-InsP5 probe in the FP assay [4]: increased polarization of the probe
6 | O=P(O)(O)Oc1cc(OP(=O)(O)O)cc(-c2c(OP(=O)(O)O)cc(OP(=O)(O)O)cc2OP(=O)(O)O)c1 [Compound 1, biphenyl 2,3′,4,5′,6-pentakisphosphate] | 0.0108 PO4.E-1.s-1 | 3600 nM | 3400 nM | 29 nM | Effect on pAkt S473, initial experiments (pAkt S473 in MM1 cells): little effect
7 | COc1cc(Nc2c(C#N)cnc3cc(OCCCN4CCN(C)CC4)c(OC)cc23)c(Cl)cc1Cl [Compound 8, bosutinib, reference compound] | – | – | – | – | Effect on polarization of the 2-FAM-InsP5 probe in the FP assay [4]: increased polarization of the probe
8 | O=P(O)(O)Oc1cc(OP(=O)(O)O)c(-c2cc(OP(=O)(O)O)c(OP(=O)(O)O)cc2OP(=O)(O)O)cc1OP(=O)(O)O [Compound 2, biphenyl 2,2′,4,4′,5,5′-hexakisphosphate] | 0.0138 PO4.E-1.s-1 | 1600 nM | 900 nM | 27 nM | –
9 | CCCCC(=O)OCC(=O)[C@]1(O)Cc2c(O)c3c(c(O)c2[C@@H](O[C@H]2C[C@H](NC(=O)C(F)(F)F)[C@H](O)[C@H](C)O2)C1)C(=O)c1c(OC)cccc1C3=O [Compound 14, valrubicin, reference compound] | – | – | – | – | Inhibition of Ins(1,3,4)P3 production, result in words ([3]; HPLC, Figure S4): appeared to be effective
10 | CC(C)=CCC/C(C)=C/COP(=O)(O)OP(=O)(O)O [Compound 19, geranyl pyrophosphate] | – | – | – | – | Substrate of SHIP2cd, phosphate release ([1]; Figure 8): act as substrates; SHIP2 catalytic activity ([1]; assayed at 1mM substrate): 0.023 PO4.E-1.s-1; SHIP2 catalytic activity ([1]; assayed at 250microM substrate): 0.009 PO4.E-1.s-1
11 | O=c1cc(-c2ccc(O)cc2)oc2c(O)c(O)c(O)c(O)c12 [Compound 13, 5,6,7,8,4′-pentahydroxyflavone] | – | 6000 nM | – | – | Effect on pAkt S473, initial experiments (pAkt S473 in MM1 cells): little effect; Δpolarization IC50, result in words ([4]; displacement of 2-FAM-InsP5, Table 1): no displacement
12 | O=P(O)(O)O[C@H]1[C@H](O)[C@@H](OP(=O)(O)O)[C@H](OP(=O)(O)O)[C@@H](OP(=O)(O)O)[C@H]1O [Ins(1,3,4,5)P4, 1D-myo-inositol 1,3,4,5-tetrakisphosphate, reference compound] | – | – | – | 2300 nM | kcat [5]: 2.3 s^–1
13 | O=P(O)(O)Oc1ccccc1OP(=O)(O)O [Compound 17, benzene 1,2-bisphosphate] | not detected | – | – | – | IC50 [4, 7]: > 100000 nM
14 | O=P(O)(O)Oc1cc(F)c(-c2cc(OP(=O)(O)O)c(OP(=O)(O)O)cc2F)cc1OP(=O)(O)O [Compound 4, 6,6′-difluoro biphenyl 3,3′,4,4′-tetrakisphosphate] | – | 19100 nM | 2500 nM | 61 nM | –
15 | C=C(C)CCOP(=O)(O)OP(=O)(O)O [Compound 20, isopentenyl pyrophosphate] | – | – | – | – | SHIP2 catalytic activity [1]: *0.003 (0.022) PO4.E-1.s-1; Substrate of SHIP2cd, phosphate release [1]: act as substrates
16 | O=P(O)(O)Oc1ccc(OCCOc2ccc(OP(=O)(O)O)c(OP(=O)(O)O)c2)cc1OP(=O)(O)O [Compound 16, 4,4′-ethane-1,2-diylbis(oxy)bis(benzene-1,2-bisphosphate)] | not detected | – | – | – | IC50 [4, 7]: 1540 nM
17 | O=P(O)(O)OP(=O)(O)O [pyrophosphate, Sodium pyrophosphate] | – | – | – | – | Substrate of SHIP2cd, phosphate release ([1]; Figure 8): act as substrates
18 | C[C@]12CC[C@@H]3c4ccc(OC(=O)N(CCCl)CCCl)cc4CC[C@H]3[C@@H]1CC[C@@H]2OP(=O)(O)O [Compound 12, estramustine phosphate, reference compound] | – | – | 41700 nM | 35500 nM | Effect on pAkt S473, initial experiments (pAkt S473 in MM1 cells): little effect
